Values after ≈ are worked out from the molar mass of the structure shown.
Legend:
[1] = test system: Escherichia coli; experiment: Bactericidal activity against ESBLs negative carbapenem-sensitive Escherichia coli 17-20 assessed as reduction in bacterial growth in the presence of avibactam; type: functional
[2] = test system: Klebsiella pneumoniae; experiment: Bactericidal activity against Carbapenem- resistant Klebsiella pneumoniae KR 15-4 assessed as reduction in bacterial growth in the presence of avibactam; type: functional
[3] = test system: Pseudomonas aeruginosa; experiment: Bactericidal activity against carbapenem-sensitive Pseudomonas aeruginosa 17-7 assessed as reduction in bacterial growth; type: functional
[4] = test system: Klebsiella pneumoniae; experiment: Antibacterial activity against ESBLs positive Carbapenem-sensitive Klebsiella pneumoniae 17-4 assessed as reduction in bacterial growth in the presence of Avibactam; type: functional
[5] = test system: Klebsiella pneumoniae; experiment: Antibacterial activity against Multidrug resistant Klebsiella pneumoniae KR 15-2 assessed as reduction in bacterial growth; type: functional
[6] = test system: Acinetobacter baumannii; experiment: Antibacterial activity against Multidrug resistant Acinetobacter baumannii AR 15-3 assessed as reduction in bacterial growth in the presence of Avibactam; type: functional
[7] = test system: Klebsiella pneumoniae; experiment: Bactericidal activity against Klebsiella pneumoniae ATCC BAA-1705 assessed as reduction in bacterial growth; type: functional
[8] = test system: Acinetobacter baumannii; experiment: Antibacterial activity against Multidrug resistant Acinetobacter baumannii AR 15-4 assessed as reduction in bacterial growth in the presence of Avibactam; type: functional
[9] = test system: Acinetobacter baumannii; experiment: Antibacterial activity against Carbapenem- resistant Acinetobacter baumannii 17-2 assessed as reduction in bacterial growth
[10] = test system: Acinetobacter baumannii; experiment: Antibacterial activity against Carbapenem- resistant Acinetobacter baumannii 17-11 assessed as reduction in bacterial growth in the presence of Avibactam; type: functional
[11] = test system: Escherichia coli; experiment: Bactericidal activity against ESBLs negative Carbapenem--sensitive Escherichia coli 17-9 assessed as reduction in bacterial growth; type: functional
[12] = test system: Escherichia coli; experiment: Antibacterial activity against Escherichia coli ATCC 35218 assessed as reduction in bacterial growth in the presence of Avibactam; type: functional
[13] = test system: Enterobacter cloacae; experiment: Antibacterial activity against Enterobacter cloacae 17-7 assessed as reduction in bacterial growth in the presence of Avibactam; type: functional
[14] = test system: Klebsiella pneumoniae; experiment: Antibacterial activity against Carbapenem- resistant Klebsiella pneumoniae KR 15-8 assessed as reduction in bacterial growth
[15] = test system: Klebsiella aerogenes; experiment: Antibacterial activity against Enterobacter aerogenes 17-1 assessed as reduction in bacterial growth in the presence of Avibactam; type: functional
[16] = test system: Klebsiella pneumoniae; experiment: Bactericidal activity against ESBLs positive Carbapenem-sensitive Klebsiella pneumoniae 17-6 assessed as reduction in bacterial growth in the presence of avibactam; type: functional
[17] = test system: Acinetobacter baumannii; experiment: Bactericidal activity against Acinetobacter baumannii NCTC 13304 assessed as reduction in bacterial growth in the presence of avibactam; type: functional
[18] = test system: Acinetobacter baumannii; experiment: Antibacterial activity against Carbapenem- resistant Acinetobacter baumannii 17-5 assessed as reduction in bacterial growth in the presence of Avibactam; type: functional
[19] = test system: Klebsiella aerogenes; experiment: Antibacterial activity against Enterobacter aerogenes 17-4 assessed as reduction in bacterial growth in the presence of Avibactam; type: functional
[20] = test system: Escherichia coli; experiment: Bactericidal activity against ESBLs positive carbapenem-sensitive Escherichia coli 17-10 assessed as reduction in bacterial growth in the presence of avibactam; type: functional
[21] = test system: Escherichia coli; experiment: Bactericidal activity against Escherichia coli NCTC 13353 assessed as reduction in bacterial growth in the presence of avibactam; type: functional
[22] = test system: Pseudomonas aeruginosa; experiment: Antibacterial activity against Pseudomonas aeruginosa ATCC 27853 assessed as reduction in bacterial growth in the presence of Avibactam; type: functional
[23] = test system: Klebsiella pneumoniae; experiment: Antibacterial activity against ESBLs positive Carbapenem-sensitive Klebsiella pneumoniae 17-14 assessed as reduction in bacterial growth in the presence of Avibactam; type: functional
[24] = test system: Klebsiella aerogenes; experiment: Bactericidal activity against Enterobacter aerogenes 17-3 assessed as reduction in bacterial growth in the presence of avibactam; type: functional
[25] = test system: Enterobacter cloacae; experiment: Antibacterial activity against Enterobacter cloacae 17-10 assessed as reduction in bacterial growth in the presence of Avibactam; type: functional
[26] = test system: Escherichia coli; experiment: Bactericidal activity against ESBLs negative Carbapenem--sensitive Escherichia coli 17-7 assessed as reduction in bacterial growth; type: functional
[27] = test system: Acinetobacter baumannii; experiment: Bactericidal activity against Carbapenem- resistant Acinetobacter baumannii 17-6 assessed as reduction in bacterial growth in the presence of avibactam; type: functional
[28] = test system: Pseudomonas aeruginosa; experiment: Antibacterial activity against Carbapenem- resistant Pseudomonas aeruginosa 17-5 assessed as reduction in bacterial growth
[29] = test system: Klebsiella pneumoniae; experiment: Antibacterial activity against ESBLs positive Carbapenem-sensitive Klebsiella pneumoniae 17-6 assessed as reduction in bacterial growth
[30] = test system: Klebsiella pneumoniae; experiment: Antibacterial activity against Multidrug resistant Klebsiella pneumoniae KR 15-3 assessed as reduction in bacterial growth in the presence of Avibactam; type: functional
[31] = test system: Pseudomonas aeruginosa; experiment: Antibacterial activity against Carbapenem- sensitive Pseudomonas aeruginosa 17-22 assessed as reduction in bacterial growth in the presence of Avibactam; type: functional
[32] = test system: Acinetobacter baumannii; experiment: Antibacterial activity against Carbapenem- resistant Acinetobacter baumannii 17-8 assessed as reduction in bacterial growth in the presence of Avibactam; type: functional
[33] = test system: Klebsiella pneumoniae; experiment: Bactericidal activity against ESBLs positive Carbapenem-sensitive Klebsiella pneumoniae 17-12 assessed as reduction in bacterial growth in the presence of avibactam; type: functional
[34] = test system: Acinetobacter baumannii; experiment: Bactericidal activity against Carbapenem- resistant Acinetobacter baumannii 17-5 assessed as reduction in bacterial growth in the presence of avibactam; type: functional
[35] = test system: Acinetobacter baumannii; experiment: Antibacterial activity against Acinetobacter baumannii NCTC 13304 assessed as reduction in bacterial growth in the presence of Avibactam; type: functional
[36] = test system: Escherichia coli; experiment: Antibacterial activity against ESBLs positive Carbapenem-sensitive Escherichia coli 17-11 assessed as reduction in bacterial growth in the presence of Avibactam; type: functional
[37] = test system: Escherichia coli; experiment: Antibacterial activity against ESBLs negative Carbapenem--sensitive Escherichia coli 17-20 assessed as reduction in bacterial growth
[38] = test system: Klebsiella pneumoniae; experiment: Bactericidal activity against Carbapenem- resistant Klebsiella pneumoniae KR 15-6 assessed as reduction in bacterial growth; type: functional
[39] = test system: Escherichia coli; experiment: Bactericidal activity against ESBLs positive carbapenem-sensitive Escherichia coli 17-3 assessed as reduction in bacterial growth in the presence of avibactam; type: functional
[40] = test system: Pseudomonas aeruginosa; experiment: Antibacterial activity against Carbapenem- resistant Pseudomonas aeruginosa 17-5 assessed as reduction in bacterial growth in the presence of Avibactam; type: functional
[41] = test system: Klebsiella pneumoniae; experiment: Antibacterial activity against Klebsiella pneumoniae ATCC 700603 assessed as reduction in bacterial growth in the presence of Avibactam; type: functional
[42] = test system: Klebsiella pneumoniae; experiment: Antibacterial activity against ESBLs negative Carbapenem-sensitive Klebsiella pneumoniae 17-20 assessed as reduction in bacterial growth in the presence of Avibactam; type: functional
[43] = test system: Klebsiella pneumoniae; experiment: Antibacterial activity against ESBLs negative Carbapenem-sensitive Klebsiella pneumoniae 17-17 assessed as reduction in bacterial growth in the presence of Avibactam; type: functional
[44] = test system: Pseudomonas aeruginosa; experiment: Bactericidal activity against Carbapenem- resistant Pseudomonas aeruginosa 17-8 assessed as reduction in bacterial growth; type: functional
[45] = test system: Pseudomonas aeruginosa; experiment: Antibacterial activity against Carbapenem- sensitive Pseudomonas aeruginosa 17-9 assessed as reduction in bacterial growth; type: functional
[46] = test system: Escherichia coli; experiment: Antibacterial activity against ESBLs negative Carbapenem-sensitive Escherichia coli 17-4 assessed as reduction in bacterial growth; type: functional

`CC(C)(O/N=C(\C(=O)N[C@@H]1C(=O)N2C(C(=O)[O-])=C(C[n+]3ccccc3)CS[C@H]12)c1csc(N)n1)C(=O)O` [CEFTAZIDIME] showed an MBC [1] of over 2 µg/mL, an MBC [2] of 2 µg/mL and an MBC [3] of 1 µg/mL (≈ 1.83 µM). The MIC [4] was 4 µg/mL, the MIC [5] was over 64 µg/mL and the MIC [6] was 16 µg/mL. The MBC [7] was over 64 µg/mL, the MIC [8] was 8 µg/mL and the MIC [9] was over 64 µg/mL. For the same compound, the MIC [10] was 8 µg/mL, the MBC [11] was 4 µg/mL (≈ 7.32 µM) and the MIC [12] was 0.06 µg/mL. The MIC [13] was 2 µg/mL, the MIC [14] was over 64 µg/mL and the MIC [15] was 1 µg/mL. It also gave an MBC [16] of over 8 µg/mL, an MBC [17] of 8 µg/mL and an MIC [18] of 8 µg/mL. For the same compound, the MIC [19] was 0.5 µg/mL, the MBC [20] was 1 µg/mL and the MBC [21] was 1 µg/mL. It also gave an MIC [22] of 0.5 µg/mL, an MIC [23] of 2 µg/mL and an MBC [24] of 0.25 µg/mL. For the same compound, the MIC [25] was 1 µg/mL, the MBC [26] was 0.25 µg/mL (≈ 0.457 µM) and the MBC [27] was 16 µg/mL. For the same compound, the MIC [28] was 64 µg/mL (≈ 117 µM), the MIC [29] was 16 µg/mL (≈ 29.3 µM) and the MIC [30] was 2 µg/mL. The MIC [31] was 0.5 µg/mL, the MIC [32] was 8 µg/mL and the MBC [33] was 1 µg/mL. It also gave an MBC [34] of 16 µg/mL, an MIC [35] of 8 µg/mL and an MIC [36] of 0.5 µg/mL. For the same compound, the MIC [37] was over 2 µg/mL, the MBC [38] was 64 µg/mL (≈ 117 µM) and the MBC [39] was 0.25 µg/mL. It also gave an MIC [40] of 32 µg/mL, an MIC [41] of 4 µg/mL and an MIC [42] of 0.125 µg/mL. The MIC [43] was 0.125 µg/mL and the MBC [44] was 64 µg/mL (≈ 117 µM).
Work on `Nc1nc(/C(=N/OCc2cc(=O)c(O)cn2O)C(=O)N[C@@H]2C(=O)N3C(C(=O)O)=CCS[C@H]23)cs1` yielded an MBC [1] of over 0.5 µg/mL, an MBC [2] of 8 µg/mL and an MBC [3] of 1 µg/mL (≈ 1.97 µM). The MIC [4] was 2 µg/mL, the MIC [5] was over 64 µg/mL and the MIC [6] was 8 µg/mL. For the same compound, the MBC [7] was over 64 µg/mL, the MIC [8] was 8 µg/mL and the MIC [9] was over 64 µg/mL. The MIC [10] was 8 µg/mL, the MBC [11] was 2 µg/mL (≈ 3.93 µM) and the MIC [12] was 0.25 µg/mL. The MIC [13] was 2 µg/mL, the MIC [14] was over 64 µg/mL and the MIC [15] was 2 µg/mL. The MBC [16] was 0.5 µg/mL, the MBC [17] was 16 µg/mL and the MIC [18] was 16 µg/mL. The MIC [19] was 1 µg/mL, the MBC [20] was 0.5 µg/mL and the MBC [21] was 0.5 µg/mL. It also gave an MIC [45] of 4 µg/mL (≈ 7.87 µM), an MIC [22] of 1 µg/mL and an MIC [23] of 0.5 µg/mL. It also gave an MBC [24] of 0.5 µg/mL, an MIC [25] of 0.5 µg/mL and an MBC [26] of 4 µg/mL (≈ 7.87 µM). For the same compound, the MBC [27] was 16 µg/mL, the MIC [28] was 64 µg/mL (≈ 126 µM) and the MIC [29] was 0.5 µg/mL (≈ 0.983 µM). It also gave an MIC [30] of 1 µg/mL, an MIC [31] of 1 µg/mL and an MIC [32] of 16 µg/mL. For the same compound, the MBC [33] was 0.125 µg/mL, the MIC [46] was 0.25 µg/mL (≈ 0.492 µM) and the MBC [34] was 16 µg/mL. It also gave an MIC [35] of 16 µg/mL, an MIC [36] of 4 µg/mL and an MIC [37] of over 2 µg/mL. It also gave an MBC [38] of 64 µg/mL (≈ 126 µM), an MBC [39] of 0.25 µg/mL and an MIC [40] of 32 µg/mL. For the same compound, the MIC [41] was 64 µg/mL, the MIC [42] was 0.06 µg/mL and the MIC [43] was 0.125 µg/mL. For the same compound, the MBC [44] was 64 µg/mL (≈ 126 µM).
`C[C@@H](O)[C@H]1C(=O)N2C(C(=O)O)=C(S[C@@H]3CN[C@H](C(=O)N(C)C)C3)[C@H](C)[C@H]12` [MEROPENEM] was tested, and the MIC [45] was 0.25 µg/mL (≈ 0.652 µM) and the MIC [46] was under 0.03 µg/mL.
